Tests used:
Details in all cases: exposure time: 90 min
[1] = system: 1392 (donor line of iPSC-derived cardiomyocytes); assay: POD (EC10) for decrease in total cell number (cytotoxicity) vs vehicle; higher = less potent (higher point of departure)
Description: (§1)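 Human iPSC-derived cardiomyocytes from 16 donors were exposed for 90 min at 37 °C to each PFAS at 0.1, 1, 10 and 100 µM in 0.5% DMSO, 384-well plates. Kinetic Ca2+ flux (FLIPR) and Hoechst nuclei counts were normalised to vehicle wells and fitted with a hierarchical Bayesian Hill model to give donor-specific PODs: EC05 for beat-rate increase or decrease and for decay-to-rise ratio increase (QT proxy), EC95 for peak-frequency loss (asystole), EC10 for total cell number loss. 0.03 µM is the lower bound.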

[2] = system: 1083 (donor line of iPSC-derived cardiomyocytes); assay: as above
Description: as §1

[3] = system: 30145 (donor line of iPSC-derived cardiomyocytes); assay: as above
Description: as §1

[4] = system: 1565 (donor line of iPSC-derived cardiomyocytes); assay: as above
Description: as §1

[5] = system: 20084 (donor line of iPSC-derived cardiomyocytes); assay: as above
Description: as §1

[6] = system: 11235 (donor line of iPSC-derived cardiomyocytes); assay: as above
Description: as §1

[7] = system: 1434 (donor line of iPSC-derived cardiomyocytes); assay: as above
Description: as §1

[8] = system: 1368 (donor line of iPSC-derived cardiomyocytes); assay: as above
Description: as §1

[9] = system: 1535 (donor line of iPSC-derived cardiomyocytes); assay: as above
Description: as §1

[10] = system: 1309 (donor line of iPSC-derived cardiomyocytes); assay: POD (EC05) for decrease in beat frequency (negative chronotrope) vs vehicle; higher = less potent (higher point of departure)
Procedure, shortened: (§2)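 Points of departure specific to each donor were obtained from hierarchical Bayesian Hill fits to vehicle-normalised beat frequency, decay-to-rise ratio or peak frequency. Thresholds were set at 5% change, or 95% loss in the case of peak frequency. The cells were human iPSC-derived cardiomyocytes from 16 donors, exposed for 90 min at 37 °C to 0.1, 1, 10 and 100 µM (final, 0.5% DMSO), with Ca2+ flux read on a FLIPR Tetra before and after exposure.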

[11] = system: 1531 (donor line of iPSC-derived cardiomyocytes); assay: as above
Procedure, shortened: as §2

[12] = system: 1083; assay: as above
Procedure, shortened: as §2

[13] = system: 30145; assay: as above
Procedure, shortened: as §2

[14] = system: 1118 (donor line of iPSC-derived cardiomyocytes); assay: as above
Procedure, shortened: as §2

[15] = system: 20084; assay: as above
Procedure, shortened: as §2

[16] = system: 20032 (donor line of iPSC-derived cardiomyocytes); assay: as above
Procedure, shortened: as §2

[17] = system: 11235; assay: as above
Procedure, shortened: as §2

[18] = system: 1434; assay: as above
Procedure, shortened: as §2

[19] = system: 1368; assay: as above
Procedure, shortened: as §2

[20] = system: 30171 (donor line of iPSC-derived cardiomyocytes); assay: as above
Procedure, shortened: as §2

SMILES	POD vs vehicle [1] [µM]	POD vs vehicle [2] [µM]	POD vs vehicle [3] [µM]	POD vs vehicle [4] [µM]	POD vs vehicle [5] [µM]	POD vs vehicle [6] [µM]	POD vs vehicle [7] [µM]	POD vs vehicle [8] [µM]	POD vs vehicle [9] [µM]	POD vs vehicle [10] [µM]	POD vs vehicle [11] [µM]	POD vs vehicle [12] [µM]	POD vs vehicle [13] [µM]	POD vs vehicle [14] [µM]	POD vs vehicle [15] [µM]	POD vs vehicle [16] [µM]	POD vs vehicle [17] [µM]	POD vs vehicle [18] [µM]	POD vs vehicle [19] [µM]	POD vs vehicle [20] [µM]
NC(=O)C(F)(F)C(F)(F)C(F)(F)C(F)(F)C(N)=O [Octafluoroadipamide]	> 100	> 100	> 100	> 100	> 100	> 100	> 100	> 100	> 100	> 100	> 100	> 100	> 100	> 100	> 100	> 100	> 100	> 100	> 100	> 100
O=C(O)C(F)(F)C(F)(F)C(F)(F)OC(F)(C(F)(F)F)C(F)(F)F [Perfluoro-4-isopropoxybutanoic_acid]	> 100	> 100	> 100	> 100	> 100	> 100	> 100	> 100	> 100	> 100	> 100	> 100	> 100	> 100	> 100	> 100	> 100	> 100	> 100	> 100
O=C(O)C(F)(F)OC(F)(F)C(F)(F)OC(F)(F)C(F)(F)OC(F)(F)C(F)(F)C(F)(F)C(F)(F)F [Perfluoro-3,6,9-trioxatridecanoic_acid]	> 100	> 100	> 100	> 100	> 100	> 100	33.3	> 100	> 100	> 100	3.38	21.8	> 100	18.3	77.9	42	23.1	22.8	> 100	20.7
O=C(O)C(F)(F)C(F)(F)C(F)(F)C(F)(F)C(F)(F)C(F)(F)F [Perfluoroheptanoic_acid]	> 100	> 100	> 100	> 100	56.8	> 100		> 100	> 100	> 100	78.7	> 100	> 100	39.8	> 100	> 100	20.6	> 100	> 100	> 100
O=S(=O)(O)CCC(F)(F)C(F)(F)C(F)(F)C(F)(F)F [4:2 Fluorotelomer sulfonic acid]	> 100	> 100	> 100	> 100	> 100	> 100	> 100	> 100	> 100	> 100	> 100	> 100	> 100	> 100	> 100	> 100	> 100	> 100	> 100	> 100
O=C(O)C(F)(F)C(F)(F)C(F)(F)C(F)(F)C(F)(F)C(F)(F)C(F)(F)F [Perfluorooctanoic_acid]	> 100	> 100	> 100	> 100	> 100	> 100	> 100	> 100	> 100	11.1	49	> 100	> 100	7.02	> 100	51.5	5.14	26.1	> 100	7.04
O=C(O)CCC(F)(F)C(F)(F)C(F)(F)C(F)(F)C(F)(F)F [2H,2H,3H,3H-Perfluorooctanoic_acid]	> 100	> 100	> 100	> 100	> 100	> 100	> 100	> 100	> 100	37.7	24.9	39.6	22.2	20	20	29.8	16.9	23.8	> 100	21.8
O=S(=O)(O)C(F)(F)C(F)(F)C(F)(F)C(F)(F)F [Perfluorobutanesulfonic_acid]	> 100	> 100	> 100	> 100	> 100	> 100	> 100	> 100	> 100	> 100	> 100	> 100	> 100	> 100	> 100	> 100	41.4	> 100	> 100	73.6
OCCC(F)(F)C(F)(F)C(F)(F)C(F)(F)F [4:2 Fluorotelomer alcohol]	> 100	> 100	49.9	> 100	> 100	> 100	> 100	> 100	> 100	> 100	> 100	> 100	> 100	22.9	> 100	> 100	> 100	> 100	> 100	> 100
CC(O)C(F)(F)C(F)(F)F (stereo unspecified) [1-Pentafluoroethylethanol]	> 100	> 100	> 100	> 100	> 100	> 100	> 100	> 100	> 100	> 100	> 100	> 100	> 100	> 100	> 100	> 100	> 100	> 100	> 100	> 100
O=C(O)C(F)(F)C(F)(F)C(F)(F)C(F)(F)C(F)(F)C(F)(F)C(F)(F)C(F)(F)C(F)(F)F [Perfluorodecanoic_acid]	> 100	> 100	> 100	81.5	> 100	> 100	75.8	> 100	> 100	56.2	64.4	18.3	> 100	2.31	77.6	> 100	15.5	12.4	> 100	7.83
O=C(O)C(F)(F)C(F)(F)C(F)F [2,2,3,3,4,4-Hexafluorobutanoic_acid]	> 100	> 100	> 100	> 100	> 100	> 100	> 100	> 100	> 100	> 100	> 100	> 100	> 100	> 100	> 100	> 100	> 100	> 100	> 100	> 100
NC(=O)C(F)(F)C(F)(F)C(F)(F)C(F)F	> 100	> 100	> 100	> 100	> 100	> 100	> 100	> 100	> 100	> 100	> 100	> 100	> 100	> 100	> 100	> 100	> 100	> 100	> 100	> 100
O=C(O)C(F)(F)C(F)(F)C(F)(F)C(F)(F)C(F)(F)C(F)(F)C(F)(F)C(F)(F)Cl [9-Chloro-perfluorononanoic_acid]	> 100	> 100	> 100	> 100	> 100	> 100	36.7	> 100	> 100	84.3	> 100	> 100	> 100	13.1	> 100	44.8	2.23	10.9	> 100	6.24
O=P(O)(O)CCC(F)(F)C(F)(F)C(F)(F)C(F)(F)C(F)(F)C(F)(F)C(F)(F)C(F)(F)F [((Perfluorooctyl)ethyl)phosphonic_acid]	> 100	> 100	> 100	> 100	> 100	> 100	> 100	> 100	> 100	> 100	> 100	> 100	> 100	> 100	> 100	> 100	> 100	> 100	> 100	> 100
O=C(O)C(F)(F)OC(F)(F)C(F)(F)OC(F)(F)F [Perfluoro-3,6-dioxaheptanoic_acid]	> 100	> 100	> 100	> 100	> 100	> 100	> 100	> 100	> 100	> 100	> 100	> 100	> 100	> 100	> 100	> 100	> 100	> 100	> 100	> 100
CN(CCO)S(=O)(=O)C(F)(F)C(F)(F)C(F)(F)C(F)(F)C(F)(F)C(F)(F)C(F)(F)C(F)(F)F [N-Methyl-N-(2-hydroxyethyl)perfluorooctanesulfonamide]	> 100	> 100	> 100	> 100	> 100	> 100	> 100	> 100	> 100	> 100	> 100	16.9	> 100		> 100	> 100	35.4	42.2	> 100	20.2
O=C(O)C(F)(F)C(F)(F)C(F)(F)C(F)(F)C(=O)O [Octafluoroadipic_acid]	54.6	> 100	> 100		> 100	> 100	23.3	> 100	> 100	> 100	> 100	> 100	> 100	> 100	> 100	> 100	> 100	> 100	> 100	> 100
OCC(F)(F)OC(F)(F)C(F)(F)OC(F)(F)C(F)(F)OC(F)(F)F [Fluorinated_triethylene_glycol_monomethyl_ether]	2.04	> 100	> 100	> 100	0.358	> 100		> 100	> 100	> 100	> 100	> 100	> 100	2.52	> 100	> 100	> 100	25.3	> 100	> 100
